Source: US7344829B2, “Methods for detecting the efficacy of anticancer treatments” (Board of Regents, the University of Texas System, priority 2000, dated 2008)
Marks after values point to notes of the source that are not given here.

Assays:
[1] = target: T1, c-Kit (Homo sapiens, UniProt P10721); experiment: GST-fused kinase domain assay, c-Kit; type: biochemical
T1 construct: GST-fused kinase domains of Kdr, Flt-1, Flk, Tek, c-Met, and c-Kit were expressed in baculovirus; GST; made in house
Experimental: GST-fused kinase domains of Kdr, Flt-1, Flk, Tek, c-Met, and c-Kit were expressed in baculovirus and purified over glutathione-Sepharose. Kinase inhibition was measured by detecting the decrease in phosphorylation of poly(Glu,Tyr 4:1) essentially as previously described for EGF-R. Each kinase was incubated under optimized buffer conditions in 20 mM Tris-HCl, pH 7.5, 1–3 mM MnCl2, 3–10 mM MgCl2, 10 μM Na3VO4, 1 mM DTT, 0.2 μCi/[γ-^33P]ATP, 1–8 μM ATP, 3–8 μg/ml poly(Glu,Tyr 4:1), 1% DMSO in a total volume of 30 μl in the presence or absence of PKI166 for 10 min at ambient temperature. Reactions were terminated by adding 10 μl of 250 mM EDTA, and the reaction mixture was transferred onto an Immobilon-PVDG membrane (Millipore, Bedford, Mass.). Following a washing (0.5% H3PO4), a soaking in EtOH, and drying, filters were counted in a liquid scintillation counter. IC50 values for PKI166 were calculated by linear regression analysis of the percentage inhibition. Inhibition of Cdc2/cyclin B protein kinase (Arion et al. 1988; Partanen et al. 1991) and PKC (McGlynn et al. 1992b) was assayed as previously described.

[2] = tested on: L3.6pl human pancreatic cancer cells; experiment: Immunohistochemical analysis of human pancreatic carcinoma in the pancreas of treated nude mice; type: in vivo; conditions: for PCNA+ tumor cells / TUNEL+ tumor cells: mean ± SD, 10 random 0.159-mm^2 fields at ×100; for CD (CD31, tumor MVD per field): staining with antibodies against CD31
Text: Immunohistochemical (IHC) Determination of VEGF, IL-8, PCNA, CD31/PECAM-1, and EGF-R. Paraffin-embedded tissues were used for identification of VEGF, IL-8, EGF-R, and proliferating cell nuclear antigen (PCNA). Sections (4–6 μm thick) were mounted on positively-charged Superfrost slides (Fisher Scientific, Co., Houston, Tex.) and dried overnight. Sections were deparaffinized in xylene followed by treatment with a graded series of alcohol (100%, 95%, 80% ethanol/ddH2O [v/v]) and rehydrated in PBS, pH 7.5. Sections analyzed for PCNA were microwaved 5 min for “antigen retrieval” (Shi et al. 1991). All other paraffin-embedded tissues were treated with pepsin (Biomeda) for 15 min at 37° C. and washed with PBS. Frozen tissues used for identification of CD31/PECAM-1, and activated EGF-R were sectioned (8–10 μm), mounted on positively charged Plus slides (Fisher Scientific), and air-dried for 30 min. Frozen sections were fixed in cold acetone (5 min), acetone/chloroform (v/v) (5 min), and acetone (5 min) and washed with PBS. Immunohistochemical procedures were performed as described previously (Rak et al. 1996). Positive reaction was visualized by incubating the slides with stable 3,3′-diaminobenzidine (DAB) for 10–20 min or 3-amino-9-ethylcarbazole (AEC) after CD31 staining. The sections were rinsed with distilled water, counterstained with Gill's hematoxylin for 1 min, and mounted with Universal Mount (Research Genetics). […] Sections analyzed for activated EGF-R were pretreated with goat anti-mouse IgG F(ab)2 fragment (1:10 dilution in PBS) for 4–6 h before incubation with the primary antibody. The positive reaction following staining for activated EGF-R was enhanced with osmium tetraoxide (4% aqueous solution) at a 1:1000 dilution in ddH2O after incubation with DAB.
Immunofluorescence Double Staining for CD31/PECAM-1 (Endothelial Cells) and TUNEL (Apoptotic Cells). Frozen tissues were sectioned (8–10 μm), mounted on positively charged slides, air-dried for 30 min, and fixed in cold acetone for 5 min, acetone+chloroform (1:1) for 5 min, and acetone for 5 min. Samples were washed 3 times with PBS, incubated with protein-blocking solution containing 5% normal horse serum and 1% normal goat serum in PBS for 20 min at room temperature, and incubated with the appropriate dilution (1:400) of rat monoclonal anti-mouse CD31 antibody (human cross-reactive) over 18 h at 4° C. After the samples were rinsed 4 times for 3 min each with PBS, the slides were incubated with the appropriate dilution (1:200) of secondary goat anti-rat conjugated to Texas Red for 1 h at room temperature in the dark. Samples were washed twice with PBS containing 0.1% Brij and washed with PBS for 5 min.
TUNEL was performed using a commercially available apoptosis detection kit with the following modifications: samples were fixed with 4% paraformaldehyde (methanol-free) for 10 min at room temperature, washed twice with PBS for 5 min, and then incubated with 0.2% Triton X-100 for 15 min at room temperature. After two washes of 5 min each with PBS, the samples were incubated with equilibration buffer (from kit) for 10 min at room temperature. The equilibration buffer was drained, and reaction buffer containing equilibration buffer, nucleotide mix, and TdT enzyme was added to the tissue sections and incubated in a humid atmosphere at 37° C. for 1 h in the dark. The reaction was terminated by immersing the samples in 2×SSC for 15 min. Samples were washed 3 times for 5 min to remove unincorporated fluorescein-dUTP. For quantification of […], the samples were incubated with 300 μg/ml of Hoechst stain for 10 min at room temperature. Fluorescent bleaching was minimized by treating slides with an enhancing reagent (Prolong solution). […]

[3] = mean ± SD absorbance, ratio of tumor cell to normal pancreatic gland expression ×100, day 35

T1 sequence (P10721 589-937 limits assumed): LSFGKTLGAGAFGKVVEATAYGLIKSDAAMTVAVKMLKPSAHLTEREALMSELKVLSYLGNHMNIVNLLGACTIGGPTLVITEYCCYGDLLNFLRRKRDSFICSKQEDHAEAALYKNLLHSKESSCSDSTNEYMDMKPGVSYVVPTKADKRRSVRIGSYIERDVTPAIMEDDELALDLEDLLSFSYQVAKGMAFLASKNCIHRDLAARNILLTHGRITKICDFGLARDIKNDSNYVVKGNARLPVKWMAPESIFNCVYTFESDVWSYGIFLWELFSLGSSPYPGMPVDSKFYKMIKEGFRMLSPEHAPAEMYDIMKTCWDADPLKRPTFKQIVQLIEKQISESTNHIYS

C[C@@H](Nc1ncnc2[nH]c(-c3ccc(O)cc3)cc12)c1ccccc1 [PKI166, 4-(R)-phenethylamino-6-(hydroxyl) phenyl-7H-pyrrolo[2.3-d]-pyrimidine]
IC50 [1]: 2210 nM
percentage of apoptotic endothelial cells over total endothelial cells ([2]; CD31/TUNEL double labeling, tumors harvested 23 days after initiation of treatment): 20±15
ratio of PCNA-positive over TUNEL-positive cells ([2]; calculated): 0.64
Staining of pancreatic tumors for activated (phosphorylated) EGF-R ([2]; immunohistochemistry of tumors from treated nude mice): not the activated (phosphorylated) EGF-R
IL-8 [2, 3]: 185 ± 11^e
VEGF [2, 3]: 173 ± 20^e
PCNA+ tumor cells ([2]; day 35): 185±33 positive cells/field
TUNEL+ tumor cells ([2]; day 35): 287±84 positive cells/field
PCNA+ tumor cells ([2]; day 35, listed as PK1166): 185 ± 33 positive cells/field
TUNEL+ tumor cells ([2]; day 35, listed as PK1166): 287 ± 84^e positive cells/field
CD (CD31, tumor MVD per field) ([2]; day 35): 24±18
CD (CD31, tumor MVD per field) ([2]; day 35, listed as PK1166): 24
